The source made the active and inactive calls. The rule behind the calls is not given here.
Legend:
U-87 MG [1] = experiment: Induction of apoptosis in human U87 cells assessed as early apoptotic cells at 10 uM incubated for 48 hrs in presence of 4-(4-(3-(4-chloro-3-(trifluoromethyl)phenyl)ureido)phenoxy)-N-(prop-2-yn-1-yl)picolinamide by Annexin V-FLTC/PI staining based flow cytometry (reference value: 8.95 %); format: functional, U-87MG ATCC
[2] = molecular target: Platelet-derived growth factor receptor beta (Homo sapiens) (UniProt P09619); experiment: Induction of PDGFR-beta degradation in human U87 cells at 10 uM incubated for 48 hrs in presence of 4-(4-(3-(4-chloro-3-(trifluoromethyl)phenyl)ureido)phenoxy)-N-(prop-2-yn-1-yl)picolinamide by Western blot analysis; format: cell-based
Sequence of Platelet-derived growth factor receptor beta (Homo sapiens) (P09619 whole entry): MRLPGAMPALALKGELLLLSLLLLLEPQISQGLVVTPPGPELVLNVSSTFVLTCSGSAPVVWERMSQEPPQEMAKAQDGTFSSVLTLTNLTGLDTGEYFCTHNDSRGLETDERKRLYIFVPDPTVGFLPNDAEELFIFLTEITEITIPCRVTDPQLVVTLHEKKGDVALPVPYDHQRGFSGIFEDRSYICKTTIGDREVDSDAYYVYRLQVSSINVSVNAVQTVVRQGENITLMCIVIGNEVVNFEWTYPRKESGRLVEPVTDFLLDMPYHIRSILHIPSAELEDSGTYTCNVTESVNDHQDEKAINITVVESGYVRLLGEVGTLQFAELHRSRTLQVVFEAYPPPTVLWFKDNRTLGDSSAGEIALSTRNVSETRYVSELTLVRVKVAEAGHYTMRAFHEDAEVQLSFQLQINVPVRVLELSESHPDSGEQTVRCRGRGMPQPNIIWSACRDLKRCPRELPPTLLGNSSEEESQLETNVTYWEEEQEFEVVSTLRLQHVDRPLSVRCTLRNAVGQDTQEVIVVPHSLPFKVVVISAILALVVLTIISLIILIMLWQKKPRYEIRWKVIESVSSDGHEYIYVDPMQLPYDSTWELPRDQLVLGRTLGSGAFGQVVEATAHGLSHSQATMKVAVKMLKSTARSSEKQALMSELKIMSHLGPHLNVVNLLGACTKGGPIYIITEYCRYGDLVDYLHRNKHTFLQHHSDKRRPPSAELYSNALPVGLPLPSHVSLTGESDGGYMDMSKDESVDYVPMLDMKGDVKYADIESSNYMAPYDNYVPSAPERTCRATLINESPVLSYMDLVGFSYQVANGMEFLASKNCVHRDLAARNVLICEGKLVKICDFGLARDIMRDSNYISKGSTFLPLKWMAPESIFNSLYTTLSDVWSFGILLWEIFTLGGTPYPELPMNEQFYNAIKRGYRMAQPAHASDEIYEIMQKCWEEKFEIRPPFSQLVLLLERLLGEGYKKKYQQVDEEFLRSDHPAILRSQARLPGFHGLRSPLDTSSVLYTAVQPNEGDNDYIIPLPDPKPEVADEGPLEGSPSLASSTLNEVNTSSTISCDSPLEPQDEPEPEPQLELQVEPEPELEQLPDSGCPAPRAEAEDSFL

U-87 MG [3] = experiment: Induction of apoptosis in human U87 cells assessed as late apoptotic cells at 20 uM incubated for 48 hrs in presence of 4-(4-(3-(4-chloro-3-(trifluoromethyl)phenyl)ureido)phenoxy)-N-(prop-2-yn-1-yl)picolinamide by Annexin V-FLTC/PI staining based flow cytometry (reference value: 3.71 %); format: functional, U-87MG ATCC
U-87 MG [4] = experiment: Induction of apoptosis in human U87 cells assessed as necrotic cells at 0.1 uM incubated for 48 hrs in presence of 4-(4-(3-(4-chloro-3-(trifluoromethyl)phenyl)ureido)phenoxy)-N-(prop-2-yn-1-yl)picolinamide by Annexin V-FLTC/PI staining based flow cytometry (reference value: 0.60 %); format: functional, U-87MG ATCC
[5] = molecular target: T1, Ephrin type-B receptor 4 (Homo sapiens) (UniProt P54760); experiment: Induction of EphB4 degradation in human U87 cells upto 10 uM incubated for 48 hrs by Western blot analysis; format: cell-based
T1 sequence (whole entry): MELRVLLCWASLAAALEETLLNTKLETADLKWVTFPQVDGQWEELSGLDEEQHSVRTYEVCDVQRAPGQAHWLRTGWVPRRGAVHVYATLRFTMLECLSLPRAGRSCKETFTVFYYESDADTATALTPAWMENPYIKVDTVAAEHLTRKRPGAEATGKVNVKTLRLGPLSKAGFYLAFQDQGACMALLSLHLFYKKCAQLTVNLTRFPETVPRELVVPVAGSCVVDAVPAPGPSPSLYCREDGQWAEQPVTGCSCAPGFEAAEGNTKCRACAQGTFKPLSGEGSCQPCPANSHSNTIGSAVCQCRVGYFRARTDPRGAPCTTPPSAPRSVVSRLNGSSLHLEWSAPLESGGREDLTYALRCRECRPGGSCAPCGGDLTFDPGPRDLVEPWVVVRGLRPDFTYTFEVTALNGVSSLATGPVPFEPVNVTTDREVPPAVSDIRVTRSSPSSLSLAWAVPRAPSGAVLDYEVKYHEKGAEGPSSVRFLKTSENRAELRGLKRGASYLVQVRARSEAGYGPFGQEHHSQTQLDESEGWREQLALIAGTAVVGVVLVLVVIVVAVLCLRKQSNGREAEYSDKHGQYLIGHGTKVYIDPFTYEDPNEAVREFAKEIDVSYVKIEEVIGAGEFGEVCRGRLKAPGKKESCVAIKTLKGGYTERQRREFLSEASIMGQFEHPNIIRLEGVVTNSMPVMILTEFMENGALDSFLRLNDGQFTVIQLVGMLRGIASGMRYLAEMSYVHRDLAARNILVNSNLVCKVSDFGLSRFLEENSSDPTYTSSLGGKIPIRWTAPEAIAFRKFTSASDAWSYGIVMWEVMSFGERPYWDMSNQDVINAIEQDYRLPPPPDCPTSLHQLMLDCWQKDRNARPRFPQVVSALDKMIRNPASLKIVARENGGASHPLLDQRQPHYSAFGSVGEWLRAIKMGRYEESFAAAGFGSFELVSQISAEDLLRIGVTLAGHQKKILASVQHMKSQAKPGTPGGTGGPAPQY

[6] = molecular target: Serine/threonine-protein kinase B-raf (Homo sapiens) (UniProt P15056); experiment: Induction of BRAF degradation in human U87 cells upto 10 uM incubated for 48 hrs by Western blot analysis; format: cell-based
Sequence of Serine/threonine-protein kinase B-raf (Homo sapiens) (P15056 whole entry): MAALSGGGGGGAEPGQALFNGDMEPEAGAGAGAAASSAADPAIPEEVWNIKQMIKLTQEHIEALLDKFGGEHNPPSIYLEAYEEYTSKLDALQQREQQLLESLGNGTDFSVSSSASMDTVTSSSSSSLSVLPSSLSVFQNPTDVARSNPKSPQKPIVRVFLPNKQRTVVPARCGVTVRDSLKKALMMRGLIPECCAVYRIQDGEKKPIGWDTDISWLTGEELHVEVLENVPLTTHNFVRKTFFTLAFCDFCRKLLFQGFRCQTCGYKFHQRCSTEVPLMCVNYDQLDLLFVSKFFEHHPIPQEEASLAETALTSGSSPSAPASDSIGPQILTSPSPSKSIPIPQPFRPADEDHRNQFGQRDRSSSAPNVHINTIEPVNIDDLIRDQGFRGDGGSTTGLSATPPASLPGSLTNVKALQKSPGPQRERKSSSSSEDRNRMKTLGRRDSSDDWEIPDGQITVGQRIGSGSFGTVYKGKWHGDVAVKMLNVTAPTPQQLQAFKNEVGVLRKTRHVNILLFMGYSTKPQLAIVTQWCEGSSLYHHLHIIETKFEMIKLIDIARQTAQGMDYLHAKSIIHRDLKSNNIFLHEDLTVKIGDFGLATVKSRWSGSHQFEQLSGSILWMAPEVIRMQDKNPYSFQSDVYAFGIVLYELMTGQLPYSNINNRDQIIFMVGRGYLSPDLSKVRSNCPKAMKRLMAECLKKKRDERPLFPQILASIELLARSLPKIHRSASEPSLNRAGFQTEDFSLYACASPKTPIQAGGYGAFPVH

U-87 MG [7] = experiment: (§1) Induction of apoptosis in human U87 cells assessed as early apoptotic cells at 10 uM incubated for 48 hrs in presence of (2S,4R)-1-((S)-2-(5-azidopentanamido)-3,3-dimethylbutanoyl)-4-hydroxy-N-(4-(4-methylthiazol-5-yl)benzyl)pyrrolidine-2-carboxamide by Annexin V-FLTC/PI staining based flow cytometry (reference value: 8.95 %); format: functional, U-87MG ATCC
[8] = molecular target: T1, Ephrin type-B receptor 4 (Homo sapiens); experiment: Induction of EphB4 degradation in human U87 cells at 10 uM incubated for 48 hrs in presence of 4-azido-N-(2-(2,6-dioxopiperidin-3-yl)-1,3-dioxoisoindolin-4-yl)butanamide by Western blot analysis; format: cell-based
U-87 MG [9] = experiment: (§2) Induction of apoptosis in human U87 cells assessed as late apoptotic cells at 5 uM incubated for 48 hrs in presence of (2S,4R)-1-((S)-2-(5-azidopentanamido)-3,3-dimethylbutanoyl)-4-hydroxy-N-(4-(4-methylthiazol-5-yl)benzyl)pyrrolidine-2-carboxamide by Annexin V-FLTC/PI staining based flow cytometry (reference value: 3.71 %); format: functional, U-87MG ATCC
U-87 MG [10] = experiment: as §1, with “viable” for “early apoptotic”, “86.74” for “8.95”; format: functional, U-87MG ATCC; details: read-out: Activity
HEK293 = experiment: Cytotoxicity against HEK293 cells at low concentration incubated for 48 hrs in presence of 4-azido-N-(2-(2,6-dioxopiperidin-3-yl)-1,3-dioxoisoindolin-4-yl)butanamide by MTT assay; format: toxicity, cell-based; details: human, hek293, 48 h
U-87 MG [11] = experiment: as §1, with “5” for “10”; format: functional, U-87MG ATCC
U-87 MG [12] = experiment: as §2, with “at 10” for “at 5”; format: functional, U-87MG ATCC
U-87 MG [13] = experiment: (§3) Induction of apoptosis in human U87 cells assessed as necrotic cells at 0.1 uM incubated for 48 hrs in presence of (2S,4R)-1-((S)-2-(5-azidopentanamido)-3,3-dimethylbutanoyl)-4-hydroxy-N-(4-(4-methylthiazol-5-yl)benzyl)pyrrolidine-2-carboxamide by Annexin V-FLTC/PI staining based flow cytometry (reference value: 0.60 %); format: functional, U-87MG ATCC
[14] = molecular target: Vascular endothelial growth factor receptor 2 (Homo sapiens) (UniProt P35968); experiment: Induction of VEGFR2 degradation in human U87 cells at 2 uM incubated for 48 hrs in presence of (2S,4R)-1-((S)-2-(5-azidopentanamido)-3,3-dimethylbutanoyl)-4-hydroxy-N-(4-(4-methylthiazol-5-yl)benzyl)pyrrolidine-2-carboxamide by Western blot analysis; format: cell-based
Sequence of Vascular endothelial growth factor receptor 2 (Homo sapiens) (P35968 whole entry): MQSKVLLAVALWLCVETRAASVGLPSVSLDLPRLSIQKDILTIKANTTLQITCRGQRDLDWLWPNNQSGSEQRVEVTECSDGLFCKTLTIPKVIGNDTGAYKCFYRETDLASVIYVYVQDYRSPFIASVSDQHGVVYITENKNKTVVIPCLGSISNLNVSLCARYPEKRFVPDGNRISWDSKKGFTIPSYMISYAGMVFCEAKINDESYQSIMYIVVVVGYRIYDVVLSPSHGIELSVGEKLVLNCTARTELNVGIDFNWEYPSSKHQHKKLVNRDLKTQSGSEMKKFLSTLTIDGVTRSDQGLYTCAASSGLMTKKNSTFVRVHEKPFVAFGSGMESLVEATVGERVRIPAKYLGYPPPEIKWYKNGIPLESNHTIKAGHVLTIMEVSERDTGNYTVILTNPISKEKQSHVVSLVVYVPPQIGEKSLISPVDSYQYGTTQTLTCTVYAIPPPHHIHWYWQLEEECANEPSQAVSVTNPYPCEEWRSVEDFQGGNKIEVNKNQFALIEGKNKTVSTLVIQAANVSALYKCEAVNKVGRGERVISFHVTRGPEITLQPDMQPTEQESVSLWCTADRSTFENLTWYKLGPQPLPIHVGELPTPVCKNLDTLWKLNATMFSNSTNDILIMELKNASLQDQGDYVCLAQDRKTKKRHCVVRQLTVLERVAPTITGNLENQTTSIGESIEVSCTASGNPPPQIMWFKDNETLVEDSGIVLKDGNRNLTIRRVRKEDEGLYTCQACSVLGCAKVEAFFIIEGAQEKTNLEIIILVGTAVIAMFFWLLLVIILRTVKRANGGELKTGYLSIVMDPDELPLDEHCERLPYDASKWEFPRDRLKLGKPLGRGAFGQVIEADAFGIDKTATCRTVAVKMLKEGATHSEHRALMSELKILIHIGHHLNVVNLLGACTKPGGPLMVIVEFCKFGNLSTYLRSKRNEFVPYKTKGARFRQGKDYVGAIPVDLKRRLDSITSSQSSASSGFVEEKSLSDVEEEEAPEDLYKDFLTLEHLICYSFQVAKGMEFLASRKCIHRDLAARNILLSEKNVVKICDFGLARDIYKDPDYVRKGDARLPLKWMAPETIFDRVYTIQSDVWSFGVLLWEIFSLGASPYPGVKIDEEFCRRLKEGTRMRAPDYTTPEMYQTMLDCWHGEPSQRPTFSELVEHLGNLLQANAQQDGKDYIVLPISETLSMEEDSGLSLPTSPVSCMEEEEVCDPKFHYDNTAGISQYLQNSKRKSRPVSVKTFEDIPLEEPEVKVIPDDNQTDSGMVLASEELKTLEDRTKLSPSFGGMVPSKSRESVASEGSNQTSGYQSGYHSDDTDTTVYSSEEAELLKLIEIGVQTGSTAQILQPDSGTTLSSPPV

U-87 MG [15] = experiment: as §3, with “viable” for “necrotic”, “86.74” for “0.60”; format: functional, U-87MG ATCC; details: read-out: Activity
U-87 MG [16] = experiment: as §2, with “at 1” for “at 5”; format: functional, U-87MG ATCC
U-87 MG [17] = experiment: Antiproliferative activity against human U87 cells incubated for 48 hrs in presence of 4-azido-N-(2-(2,6-dioxopiperidin-3-yl)-1,3-dioxoisoindolin-4-yl)butanamide by MTT assay; format: functional, cell-based, U-87MG ATCC
U-87 MG [18] = experiment: as §1, with “1” for “10”; format: functional, U-87MG ATCC

Structure (SMILES) | Activity (U-87 MG [1]) [%] | Activity [2] | Activity (U-87 MG [3]) [%] | Activity (U-87 MG [4]) [%] | Activity [5] | Activity [6] | Activity (U-87 MG [7]) [%] | Activity [8] | Activity (U-87 MG [9]) [%] | viability at 10 µM (U-87 MG [10]) [%] | Activity (HEK293) | Activity (U-87 MG [11]) [%] | Activity (U-87 MG [12]) [%] | Activity (U-87 MG [13]) [%] | Activity [14] | viability at 0.1 µM (U-87 MG [15]) [%] | Activity (U-87 MG [16]) [%] | IC50 (U-87 MG [17]) [µM] | Activity (U-87 MG [18]) [%]
[N-]=[N+]=NCCCC(=O)Nc1cccc2c1C(=O)N(C1CCC(=O)NC1=O)C2=O (centres undefined) | 0.08 | Active | 79.04 | 1.02 | – | – | – | – | – | – | – | – | – | – | – | – | – | – | –
C#CCNC(=O)c1cc(Oc2ccc(NC(=O)Nc3ccc(Cl)c(C(F)(F)F)c3)cc2)ccn1 | – | – | – | – | inactive | inactive | 0.08 | Active | 73.25 | 1.74 | Non-Toxic | 0.05 | 72.58 | 1.02 | Active | 85.3 | 5.43 | 5.68 | 11.69
